The text below walks through data of US8461348B2, “Heterocyclic derivative and use thereof” (Takeda Pharmaceutical Company Limited, priority 2008, dated 2013).

The first assay has as its target T1, Purified sGC (Homo sapiens, UniProt Q02153).
T1 sequence (Q02153 1-619): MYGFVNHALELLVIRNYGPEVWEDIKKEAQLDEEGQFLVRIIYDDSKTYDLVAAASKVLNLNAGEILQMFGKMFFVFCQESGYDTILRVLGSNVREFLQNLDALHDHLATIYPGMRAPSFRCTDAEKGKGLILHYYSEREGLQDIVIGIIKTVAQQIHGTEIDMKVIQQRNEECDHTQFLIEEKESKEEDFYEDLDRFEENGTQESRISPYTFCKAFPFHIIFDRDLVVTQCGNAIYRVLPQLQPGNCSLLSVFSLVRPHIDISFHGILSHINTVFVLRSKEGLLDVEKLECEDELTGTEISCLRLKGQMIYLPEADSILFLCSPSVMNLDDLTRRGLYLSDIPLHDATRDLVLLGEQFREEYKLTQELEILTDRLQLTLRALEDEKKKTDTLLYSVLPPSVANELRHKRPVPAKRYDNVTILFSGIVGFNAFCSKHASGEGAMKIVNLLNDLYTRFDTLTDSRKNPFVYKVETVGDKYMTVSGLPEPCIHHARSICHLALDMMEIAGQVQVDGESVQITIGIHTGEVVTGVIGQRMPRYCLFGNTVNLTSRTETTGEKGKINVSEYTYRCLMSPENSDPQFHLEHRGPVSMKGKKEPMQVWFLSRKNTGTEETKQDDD
T1 sequence (Q02108 1-690 partner): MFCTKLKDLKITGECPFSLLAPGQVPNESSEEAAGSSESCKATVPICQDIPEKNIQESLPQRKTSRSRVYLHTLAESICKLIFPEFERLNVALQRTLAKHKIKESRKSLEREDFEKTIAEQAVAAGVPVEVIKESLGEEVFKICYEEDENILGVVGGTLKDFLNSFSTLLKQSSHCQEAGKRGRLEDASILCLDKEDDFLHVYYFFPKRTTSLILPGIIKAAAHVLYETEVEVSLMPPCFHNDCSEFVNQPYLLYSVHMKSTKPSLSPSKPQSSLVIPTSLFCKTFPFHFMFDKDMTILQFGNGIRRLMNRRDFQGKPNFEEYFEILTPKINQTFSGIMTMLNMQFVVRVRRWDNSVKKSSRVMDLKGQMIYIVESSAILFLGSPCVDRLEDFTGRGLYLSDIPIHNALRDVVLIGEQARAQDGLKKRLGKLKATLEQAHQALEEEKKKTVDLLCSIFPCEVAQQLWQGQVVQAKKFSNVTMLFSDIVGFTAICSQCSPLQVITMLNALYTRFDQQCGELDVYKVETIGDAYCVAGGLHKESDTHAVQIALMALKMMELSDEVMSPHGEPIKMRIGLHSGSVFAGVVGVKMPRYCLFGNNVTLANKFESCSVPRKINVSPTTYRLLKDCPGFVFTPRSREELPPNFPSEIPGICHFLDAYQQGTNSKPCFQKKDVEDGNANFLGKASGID
Kind of assay: Measurement of sGC activation in vitro (cGMP production by purified sGC). In kind it is biochemical. Conditions: 20 min; test compound diluted to 30 μM, 10 μL/well plus equal volumes of sGC and GTP; 20 min at room temperature; cGMP without compound (1% DMSO) = 100%; read-out: cGMP amount (%) in experiment system. As to the method:
To evaluate sGC activation of each compound, the following in vitro tests were performed.
A test compound was diluted with a reaction buffer (50 mM HEPES, 5 mM MgCl2, 2 mM DTT, 0.5 mM IBMX (isobutylmethylxanthine), 0.01% BSA) to 30 μM (3% DMSO), and dispensed to a 384 well plate (manufactured by REMP) at 10 μL/well. Purified sGC was diluted with the reaction buffer to 240 ng/mL and added to the plate at 10 μL/well. Then, 120 μM GTP prepared with the reaction buffer was added to the reaction plate at 10 μL/well to initiate an enzyme reaction. After stirring at room temperature for 20 min to allow reaction, 125 mM Na2CO3 was added at 15 μL/well to quench the reaction. Thereafter, 125 mM Zn Acetate (zinc acetate) was added at 15 μL/well to allow precipitation of unreacted GTP. Then, the amount of the resulting cGMP contained in the supernatant was quantified using a CatchPoint cGMP assay kit (molecular devices). The method followed the protocol attached to the assay kit. For detection, Super Signal ELISA Femto (Thermo) was used, and the amount of luminescence was measured with ARVO (Perkinelmer). The sGC activity with addition of the compound was calculated using the amount of cGMP produced without addition of the compound (in the presence of 1% DMSO) as 100%.
Turning to `O=C(O)c1cnn(-c2nc(-c3ccc(Cl)c(Cl)c3)cs2)c1C(F)(F)F` [Ref. Ex. 1, 1-[4-(3,4-dichlorophenyl)-1,3-thiazol-2-yl]-5-(trifluoromethyl)-1H-pyrazole-4-carboxylic acid], the activity at 10 µM was more than 1000%. Take `Cc1cc(C(=O)O)nn1Cc1nc(-c2ccc(Cl)c(Cl)c2)cs1` [Example 6, 1-{[4-(3,4-dichlorophenyl)-1,3-thiazol-2-yl]methyl}-5-methyl-1H-pyrazole-3-carboxylic acid]: the activity at 10 µM was 420%. On the same count and under the same terms, next, `O=C(O)c1ccc(Cc2nc(-c3cccc(C(F)(F)F)c3F)cs2)cc1` [Example 186, 4-({4-[2-fluoro-3-(trifluoromethyl)phenyl]-1,3-thiazol-2-yl}methyl)benzoic acid]: more than 1000%; `O=C(O)c1cnn(-c2nc(CCc3cccc(C(F)(F)F)c3)cs2)c1C(F)(F)F` [Ref. Ex. 24, 5-(trifluoromethyl)-1-(4-{2-[3-(trifluoromethyl)phenyl]ethyl}-1,3-thiazol-2-yl)-1H-pyrazole-4-carboxylic acid]: more than 1000%. On to `Cc1c(C(=O)O)cnn1Cc1nc(-c2cccc(C(F)(F)F)c2)cs1` [Example 13, 5-methyl-1-({4-[3-(trifluoromethyl)phenyl]-1,3-thiazol-2-yl}methyl)-1H-pyrazole-4-carboxylic acid], for which the activity at 10 µM was more than 1000%. Regarding `O=C(O)c1cnn(-c2nc(Cc3cccc(C(F)(F)F)c3)cs2)c1C(F)(F)F` [Ref. Ex. 25, 5-(trifluoromethyl)-1-{4-[3-(trifluoromethyl)benzyl]-1,3-thiazol-2-yl}-1H-pyrazole-4-carboxylic acid], the activity at 10 µM was more than 1000%.

For `O=C(O)c1cnn(Cc2ncc(-c3cccc(C(F)(F)F)c3)s2)c1` [Example 23, 1-({5-[3-(trifluoromethyl)phenyl]-1,3-thiazol-2-yl}methyl)-1H-pyrazole-4-carboxylic acid], the activity at 10 µM was 996%. On the same count and under the same terms, next, `Cc1c(C(=O)O)cnn1-c1nc(-c2ccc(Cl)c(Cl)c2)cs1` [Ref. Ex. 5, 1-[4-(3,4-dichlorophenyl)-1,3-thiazol-2-yl]-5-methyl-1H-pyrazole-4-carboxylic acid]: more than 1000%; `O=C(O)c1ccc(Cc2nc(-c3ccc(Cl)c(Cl)c3)cs2)cc1` [Example 179, 4-{[4-(3,4-dichlorophenyl)-1,3-thiazol-2-yl]methyl}benzoic acid]: more than 1000%; `O=C(Nc1cccc(Cl)c1)c1csc(-n2ncc(C(=O)O)c2C(F)(F)F)n1` [Ref. Ex. 20, 1-{4-[(3-chlorophenyl)carbamoyl]-1,3-thiazol-2-yl}-5-(trifluoromethyl)-1H-pyrazole-4-carboxylic acid]: more than 1000%. Take `FC(F)(F)c1cccc(-c2csc(Cn3cc(-c4nn[nH]n4)cn3)n2)c1` [Example 18, 5-[1-({4-[3-(trifluoromethyl)phenyl]-1,3-thiazol-2-yl}methyl)-1H-pyrazol-4-yl]-2H-tetrazole]: the activity at 10 µM came out at 503%. Still for that read-out and setting: in the case of `O=C(O)c1ccc(Cc2nc(-c3cccc(C(F)(F)F)c3)cs2)cc1` [Example 178, 4-({4-[3-(trifluoromethyl)phenyl]-1,3-thiazol-2-yl}methyl)benzoic acid] it was more than 1000%; in that of `Cc1sc(-c2cc(Cl)cc(C(F)(F)F)c2)nc1Cn1cc(C(=O)O)cn1` [Example 83, 1-({2-[3-chloro-5-(trifluoromethyl)phenyl]-5-methyl-1,3-thiazol-4-yl}methyl)-1H-pyrazole-4-carboxylic acid], more than 1000%. As for `O=C(O)c1cnn(-c2nc(-c3ccc(Cl)s3)cs2)c1C(F)(F)F` [Ref. Ex. 3, 1-[4-(5-chlorothiophen-2-yl)-1,3-thiazol-2-yl]-5-(trifluoromethyl)-1H-pyrazole-4-carboxylic acid], the activity at 10 µM is more than 1000%.

For the compound `Cc1sc(-c2cccc(C(F)(F)F)c2F)nc1Cn1cc(C(=O)O)cn1` [Example 80, 1-({2-[2-fluoro-3-(trifluoromethyl)phenyl]-5-methyl-1,3-thiazol-4-yl}methyl)-1H-pyrazole-4-carboxylic acid], the activity at 10 µM is more than 1000%. For `O=C(O)c1cnn(-c2nc(-c3cccc(OC(F)(F)F)c3)cs2)c1C(F)(F)F` [Ref. Ex. 10, 1-{4-[3-(trifluoromethoxy)phenyl]-1,3-thiazol-2-yl}-5-(trifluoromethyl)-1H-pyrazole-4-carboxylic acid], the activity at 10 µM is more than 1000%. For `O=C(O)c1cnn(-c2nc(-c3ccc(Cl)c(Cl)c3)cs2)c1C1CC1` [Ref. Ex. 4, 5-cyclopropyl-1-[4-(3,4-dichlorophenyl)-1,3-thiazol-2-yl]-1H-pyrazole-4-carboxylic acid], the activity at 10 µM was more than 1000%. On the same count and under the same terms, in the case of `CS(=O)(=O)NC(=O)c1cnn(-c2nc(-c3ccc(Cl)c(Cl)c3)cs2)c1C(F)(F)F` [Ref. Ex. 19, 1-[4-(3,4-dichlorophenyl)-1,3-thiazol-2-yl]-N-(methylsulfonyl)-5-(trifluoromethyl)-1H-pyrazole-4-carboxamide] it was more than 1000%; in that of `O=C(O)c1cnn(Cc2csc(-c3cccc(C(F)(F)F)c3)n2)c1` [Example 21, 1-({2-[3-(trifluoromethyl)phenyl]-1,3-thiazol-4-yl}methyl)-1H-pyrazole-4-carboxylic acid], more than 1000%. `O=C(O)c1cnn(-c2nc(-c3ccc(Cl)c(Cl)c3)cs2)c1` [Ref. Ex. 17, 1-[4-(3,4-dichlorophenyl)-1,3-thiazol-2-yl]-1H-pyrazole-4-carboxylic acid]: the activity at 10 µM is more than 1000%. Turning to `FC(F)(F)c1c(-c2nn[nH]n2)cnn1-c1nc(-c2ccc(Cl)c(Cl)c2)cs1` [Ref. Ex. 18, 5-{1-[4-(3,4-dichlorophenyl)-1,3-thiazol-2-yl]-5-(trifluoromethyl)-1H-pyrazol-4-yl}-2H-tetrazole], the activity at 10 µM was more than 1000%. On the same count and under the same terms, in the case of `O=C(O)c1cnn(-c2nc(COc3ccc(Cl)c(Cl)c3)cs2)c1C(F)(F)F` [Ref. Ex. 22, 1-[4-[(3,4-dichlorophenoxy)methyl]-1,3-thiazol-2-yl]-5-(trifluoromethyl)-1H-pyrazole-4-carboxylic acid] it was 766%.

The subject of a further assay is male SHR. Kind of assay: Measurement of hypotensive action in vivo in SHR. Also noted: species or system rat. Conditions: single oral administration, 10 mg/kg, 5 hr after administration. As to the method:
Animal used was male SHR (32- to 40-week-old, SHR/Izm, Japan SLC, Inc.). Two days before drug administration, a cannula (SP10+SP45, Natsume Seisakusho Co., Ltd.) filled with heparin physiological saline (200 U/mL, Ajinomoto Pharma Co., Ltd.) was inserted from the femoral artery under anesthesia with pentobarbital Na (50 mg/kg, i.p., Kyoritsu Seiyaku Corporation) and dwelled. The other end of the cannula was subcutaneously passed and exposed on the back of the neck where it was fixed. After a recovery period, the artery dwelling cannula was connected to a pressure transducer (DTX Plus DT-XXAD, Japan Becton Dickinson) and output on a pen recorder (linear recorder WR3320-4µL, Graphtec Corporation) via a polygraph (AP-641G, Nihon Kohden Co.), and the blood pressure waveform was recorded. The heart rate was calculated from the blood pressure waveform. After stable blood pressure was obtained, a solvent or a drug was orally administered once, and average blood pressure and average heart rate were measured over time. The blood pressure was measured under fasting, and the rats were reared under free ingestion of feed and water except the blood pressure measurement day. The drug was suspended in 0.5% methylcellulose aqueous solution. The administration dose was 2 mL/kg.
Consider `Cc1sc(-c2cc(Cl)cc(C(F)(F)F)c2)nc1Cn1cc(C(=O)O)cn1` [Example 83, 1-({2-[3-chloro-5-(trifluoromethyl)phenyl]-5-methyl-1,3-thiazol-4-yl}methyl)-1H-pyrazole-4-carboxylic acid], for which the “hypotension after 5 hr from the administration” value (“hypotension after 5 hr” for short) stood at 14.5 mmHg. As for `Cc1sc(-c2cccc(C(F)(F)F)c2F)nc1Cn1cc(C(=O)O)cn1` [Example 80, 1-({2-[2-fluoro-3-(trifluoromethyl)phenyl]-5-methyl-1,3-thiazol-4-yl}methyl)-1H-pyrazole-4-carboxylic acid], the “hypotension after 5 hr” value is listed as 14.7 mmHg.

The same assay, now with this note: single oral administration, 30 mg/kg, 5 hr after administration.
`O=C(O)c1ccc(Cc2nc(-c3cccc(C(F)(F)F)c3)cs2)cc1` [Example 178, 4-({4-[3-(trifluoromethyl)phenyl]-1,3-thiazol-2-yl}methyl)benzoic acid]: the “hypotension after 5 hr” value turned out to be 15.8 mmHg.
